According to the supplement of paper PMC10307832:

compound: C(C(=O)C(=O)O)Br [Bromopyruvate] + Cc1nc(NC(=O)N2CCC[C@H]2C(N)=O)sc1-c1ccnc(C(C)(C)C(F)(F)F)c1 [Alpelisib] (partner 2 µM); experiment: relative viability (nuclei count vs DMSO), 5 days (fraction); higher = more cells survive; conditions: first compound 1 µM
Summary of the method: (§1)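 Relative viability was taken as the ratio of nuclei in treated wells to nuclei in vehicle wells. Lung cancer cell lines in 1536-well plates received compounds by pin tool one day after seeding, either one drug alone or a fixed anchor-drug dose plus five library-drug doses (not always all listed) in √10 steps. Nuclei were counted on 4× images after 5 days of treatment, and values are medians of duplicate plates.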

Row | Cell Line | relative viability
1 | NCI-H838 | 1.01
2 | EBC-1 | 0.888
3 | NCI-H1703 | 0.364
4 | NCI-H2009 | 1.11
5 | NCI-H1993 | 0.691
6 | PC-14 | 1.02
7 | LCLC-103H | 0.981
8 | NCI-H596 | 0.435
9 | NCI-H2228 | 0.656
10 | Calu-6 | 1.09
11 | HCC-366 | 0.494
12 | IA-LM | 0.756
13 | NCI-H2170 | 0.833
14 | A549 | 0.814
15 | HCC-78 | 0.305
16 | NCI-H1299 | 1.01
17 | NCI-H1563 | 0.984
18 | ABC-1 | 0.915

same assay, conditions: first compound 3.162 µM

Row | Cell Line | relative viability
19 | NCI-H838 | 0.983
20 | EBC-1 | 0.82
21 | NCI-H1703 | 0.347
22 | NCI-H2009 | 1.15
23 | NCI-H1993 | 0.705
24 | PC-14 | 1.01
25 | LCLC-103H | 0.938
26 | NCI-H596 | 0.47
27 | NCI-H2228 | 0.866
28 | Calu-6 | 1.02
29 | HCC-366 | 0.403
30 | IA-LM | 0.776
31 | NCI-H2170 | 0.831
32 | A549 | 0.971
33 | HCC-78 | 0.354
34 | NCI-H1299 | 1.04
35 | NCI-H1563 | 1.02
36 | ABC-1 | 1.04

same assay, conditions: first compound 10 µM

Row | Cell Line | relative viability
37 | NCI-H838 | 1.01
38 | EBC-1 | 0.802
39 | NCI-H1703 | 0.294
40 | NCI-H2009 | 1.21
41 | NCI-H1993 | 0.668
42 | PC-14 | 0.93
43 | LCLC-103H | 1.01
44 | NCI-H596 | 0.551
45 | NCI-H2228 | 0.806
46 | Calu-6 | 1.05
47 | HCC-366 | 0.503
48 | IA-LM | 0.887
49 | NCI-H2170 | 0.764
50 | A549 | 0.834
51 | HCC-78 | 0.421
52 | NCI-H1299 | 1.09
53 | NCI-H1563 | 0.825

same assay, conditions: first compound 31.62 µM

Row | Cell Line | relative viability
54 | NCI-H838 | 0.981
55 | EBC-1 | 0.79
56 | NCI-H1703 | 0.345
57 | NCI-H2009 | 1.07
58 | NCI-H1993 | 0.642
59 | PC-14 | 0.966
60 | LCLC-103H | 0.95
61 | NCI-H596 | 0.477
62 | NCI-H2228 | 0.698
63 | Calu-6 | 0.952
64 | HCC-366 | 0.519
65 | IA-LM | 0.836
66 | NCI-H2170 | 0.914
67 | A549 | 0.794
68 | HCC-78 | 0.452
69 | NCI-H1299 | 1.04
70 | NCI-H1563 | 0.978
71 | ABC-1 | 1.04

same assay, conditions: first compound 100 µM

Row | Cell Line | relative viability
72 | NCI-H838 | 1.13
73 | EBC-1 | 0.747
74 | NCI-H1703 | 0.33
75 | NCI-H2009 | 1.01
76 | NCI-H1993 | 0.644
77 | PC-14 | 0.964
78 | LCLC-103H | 0.985
79 | NCI-H596 | 0.491
80 | NCI-H2228 | 0.631
81 | Calu-6 | 0.615
82 | HCC-366 | 0.41
83 | IA-LM | 0.821
84 | NCI-H2170 | 0.864
85 | A549 | 0.726
86 | HCC-78 | 0.373
87 | NCI-H1299 | 1.06
88 | NCI-H1563 | 0.809
89 | ABC-1 | 0.878

compound: CC(O)(CS(=O)(=O)c1ccc(F)cc1)C(=O)Nc1ccc(C#N)c(C(F)(F)F)c1 [Bicalutamide] + CC(=O)Nc1cccc(-n2c(=O)n(C3CC3)c(=O)c3c(Nc4ccc(I)cc4F)n(C)c(=O)c(C)c32)c1 [Trametinib] (partner 0.02 µM); experiment: as above; conditions: first compound 0.08 µM
Summary of the method: as §1

Row | Cell Line | relative viability
90 | NCI-H522 | 0.661
91 | NCI-H838 | 0.553
92 | NCI-H1650 | 0.586
93 | NCI-H2009 | 0.296
94 | NCI-H1993 | 0.492
95 | PC-14 | 0.879
96 | LCLC-103H | 0.705
97 | NCI-H596 | 0.76
98 | NCI-H2228 | 0.39
99 | HCC-366 | 0.388
100 | NCI-H2342 | 0.771
101 | ChaGo-K-1 | 0.854
102 | NCI-H2170 | 0.892
103 | SW 900 | 0.778
104 | HCC-78 | 0.94

same assay, conditions: first compound 0.253 µM

Row | Cell Line | relative viability
105 | NCI-H522 | 0.723
106 | NCI-H838 | 0.419
107 | NCI-H1650 | 0.529
108 | NCI-H2009 | 0.225
109 | NCI-H1993 | 0.519
110 | PC-14 | 0.738
111 | LCLC-103H | 0.676
112 | NCI-H596 | 0.765
113 | NCI-H2228 | 0.54
114 | HCC-366 | 0.231
115 | NCI-H2342 | 0.807
116 | ChaGo-K-1 | 0.865
117 | NCI-H2170 | 0.861
118 | SW 900 | 0.678
119 | HCC-78 | 0.653

same assay, conditions: first compound 0.8 µM

Row | Cell Line | relative viability
120 | NCI-H522 | 0.813
121 | NCI-H838 | 0.661
122 | NCI-H1650 | 0.713
123 | NCI-H2009 | 0.296
124 | NCI-H1993 | 0.536
125 | PC-14 | 0.926
126 | LCLC-103H | 0.697
127 | NCI-H596 | 0.994
128 | NCI-H2228 | 0.616
129 | HCC-366 | 0.454
130 | NCI-H2342 | 0.768
131 | ChaGo-K-1 | 1.03
132 | NCI-H2170 | 0.97
133 | SW 900 | 0.756
134 | NCI-H1648 | 0.395
135 | HCC-78 | 0.86

same assay, conditions: first compound 2.53 µM

Row | Cell Line | relative viability
136 | NCI-H522 | 0.8
137 | NCI-H838 | 0.293
138 | NCI-H1650 | 0.473
139 | NCI-H2009 | 0.248
140 | NCI-H1993 | 0.56
